{
  "source": "patent US10723750B2",
  "about": "“Sphingamide compounds and methods for binding iNKT cells” (La Jolla Institute for Allergy and Immunology, priority 2015, dated 2020)",
  "key": {"[1]": {"test_system": "iNKT cells in C57BL/6 mice", "assay": "Sphingamide competition with OCH in vivo, serum IL-4 and IFN-γ", "set-up": "species or system mouse", "conditions": "FIG. 9", "description": "Cytokine levels were measured from blood serum using ELISA after 4 hours (IL-4) and 16 hours (IFN-γ)."}, "[2]": {"test_system": "murine iNKT hybridoma cells", "assay": "Sphingamide competition with OCH in vitro, APC-free recombinant mCD1d (IL-2 ELISA)", "format": "cell-based, mouse", "conditions": "JG168 1-20 ug/ml mixed with 1 ug/ml OCH, FIG. 8", "description": "For in vitro stimulation, murine iNKT hybridoma cells at 5×10^4 cells/well in 96-well plates were incubated with CD1d (loaded with OCH and the competing sphingamide) and levels of iNKT cell activation was monitored by measuring murine IL-2 secretion by ELISA."}, "[3]": {"test_system": "murine iNKT hybridoma cells", "assay": "iNKT hybridoma activation, A20 B cells expressing wild-type mCD1d (IL-2 ELISA)", "format": "cell-based, mouse", "conditions": "A20/mCD1d wt, FIG. 5B", "description": "(§1) First, the present sphingamide compounds were tested to determine whether they activated iNKT cell hybridomas when the sphingamide was presented to the iNKT cell TCR by (a) an antigen presenting-cell (APC) free assay which uses recombinant mCD1d, (b) an A20 B-cell (an antigen presenting cell) expressing the wild-type (WT) mCD1d, or (c) an A20 B-cell expressing a tail-deleted mCD1d. The tail deleted mCD1d lacks the “YQDI” amino acid sorting motif required for routing CD1d to endosomes (for example, amino acid residues 314-317 of SEQ ID NO: 2 would be missing).\n(§2) For in vitro stimulation, murine iNKT hybridoma cells at 5×10^4 cells/well in 96-well plates were stimulated with the 10^5 cells/well glycolipid pulsed BMDCs in cDMEM for 4, 16 or 24 hours at 37° C. with 0.05 μg/ml, 0.1 μg/ml, 0.5 μg/ml, 1 μg/ml, 2 μg/ml, or 5 μg/ml of lipid, and levels of murine IL-2 secretion were determined by ELISA.\n(§3) Tail-deleted mCD1d cannot recycle back into the cell, as the binding site for a required lipid loading factor has been deleted. (see Jin et al., Immunity 2009, 30(6):888-898 for a discussion of the model)."}, "[4]": {"test_system": "murine iNKT hybridoma cells", "assay": "iNKT hybridoma activation, A20 B cells expressing tail-deleted mCD1d (IL-2 ELISA)", "format": "cell-based, mouse", "conditions": "tail-deleted mCD1d A20 B cell, FIG. 5C", "description": "as §1, §2, §3"}, "[5]": {"test_system": "murine iNKT hybridoma cells", "assay": "iNKT hybridoma activation, APC-free assay with recombinant mCD1d (IL-2 ELISA)", "format": "cell-based, mouse", "conditions": "FIG. 5A/5D", "description": "as §1, §2\nThe present sphingamide, or amide-lacking versions were tested to determine whether they activated iNKT cell hybridomas when the sphingamide was presented to the iNKT cell TCR by an antigen presenting-cell (APC) free assay which uses recombinant mCD1d. […]\nFor in vitro stimulation, murine iNKT hybridoma cells at 5×10^4 cells/well were added to the wells containing CD1d and incubated in the presence of 5% CO2 at 37° C. over night. Levels of murine IL-2 secretion were determined by ELISA."}, "[6]": {"conditions": "cited from earlier work"}, "[7]": {"test_system": "Vα24+ human NKT cells", "assay": "Activation of human iNKT cells in vitro, GM-CSF release (sandwich ELISA)", "format": "cell-based", "conditions": "glycolipid-pulsed PBMCs with Vα24+ human NKT cells, 24 h, FIG. 7", "from_the_text": "The isolation and expansion of human Vα24^+ NKT cell lines has been published previously (Rogers, P. R., Matsumoto, A., Naidenko, O., Kronenberg, M., Mikayama, T., and Kato, S. (2004) Expansion of human Vα24^+ NKT cells by repeated stimulation with KRN7000. J. Immunol. Methods 285, 197-214). Human donor peripheral blood mononuclear cells (PBMCs, 1-1.5×10^6/ml) were isolated and cultured in RPMI 1640 medium (Invitrogen) supplemented with 10% (v/v) FBS and 1% (v/v) Pen/Strep/glutamine (10,000 units of penicillin, 10 mg of streptomycin, 29.2 mg/ml L-glutamine; Invitrogen), and cultures were expanded by weekly re-stimulation with αGalCer-pulsed, irradiated PBMC and recombinant human IL-2.\nPBMCs (1×10^5 per well) were pulsed with glycolipids, seeded in 96-well plates, and cultured in the presence of 5×10^4 Vα24^+ human NKT cells for 24 h. GM-CSF release was evaluated in a sandwich ELISA following the manufacturer's instructions (R&D Systems)."}, "[8]": {"test_system": "iNKT cells in C57BL/6 mice", "assay": "In vivo activation of iNKT cells, serum cytokines by ELISA", "set-up": "species or system mouse"}},
  "data": [
    {"smiles": "CCCCCCCC(=O)N[C@@H](CO[C@H]1OC(CO)[C@H](O)C(O)[C@@H]1O)[C@H](O)[C@H](O)CCCC(=O)NCCCCCCc1ccccc1", "note": "(stereo partly drawn) [JG168]", "values": [
      {"measurement": "activation of iNKT cells in vivo", "setting": "[1]; 20 μg JG168 alone i.v.", "value": "did not activate iNKT cells in vivo"},
      {"measurement": "competition with OCH (serum IL-4 and IFN-γ)", "setting": "[1]; 1, 5 or 20 μg JG168 + 1 μg OCH i.v.", "value": "no competition was observed"},
      {"measurement": "competition with OCH (IL-2 secretion)", "setting": "[2]", "value": "No competition was observed"}
    ]},
    {"smiles": "CCCCCCCCCCCCCC[C@@H](O)[C@@H](O)[C@H](CO[C@H]1OC(CO)[C@H](O)C(O)C1O)NC(=O)CCCCCCC", "note": "(stereo partly drawn) [PBS-25]", "values": [
      {"measurement": "IL-2 secretion by iNKT hybridoma", "setting": "[3]", "value": "significant amount of IL-2"},
      {"measurement": "IL-2 secretion by iNKT hybridoma", "setting": "[4]", "value": "significant amount of IL-2"},
      {"measurement": "IL-2 secretion by iNKT hybridoma", "setting": "[5]", "value": "significant amount of IL-2"},
      {"measurement": "solubility in aqueous solutions", "setting": "[6]", "value": "readily soluble"}
    ]},
    {"smiles": "CCCCCCCCCCCCCCCCCCCCCCCCCC(=O)N[C@@H](CO[C@H]1O[C@H](CO)[C@H](O)[C@H](O)[C@H]1O)[C@H](O)[C@H](O)CCCCCCCCCCCCCC", "note": "[α-GalCer, N-[(2S,3S,4R)-3,4-Dihydroxy-1-[(2S,3R,4S,5R,6R)-3,4,5-trihydroxy-6-(hydroxymethyl)oxan-2-yl]oxyoctadecan-2-yl]hexacosanamide]", "values": [
      {"measurement": "IL-2 secretion by iNKT hybridoma", "setting": "[3]", "value": "stimulated the secretion of IL-2"},
      {"measurement": "IL-2 secretion by iNKT hybridoma", "setting": "[4]", "value": "did not stimulate IL-2 production"},
      {"measurement": "GM-CSF secretion", "setting": "[7]", "value": "significant secretion of GMCSF at all doses"},
      {"measurement": "cytokines produced in vivo (IL-4 / IFN-γ)", "setting": "[8]; 1 μg glycolipid injected i.v., FIG. 12", "value": "makes both"},
      {"measurement": "serum IL-4", "setting": "[8]; C57BL/6 mice, 5 μg glycolipid i.v., 4 hours", "value": "significant amounts"},
      {"measurement": "serum IFN-γ", "setting": "[8]; C57BL/6 mice, 5 μg glycolipid i.v., 16 hours", "value": "significant amounts"},
      {"measurement": "solubility in aqueous solutions", "setting": "[6]", "value": "poorly soluble"}
    ]},
    {"smiles": "CCCCCCCCCCCCCCCCCCCCCCCC(=O)N[C@@H](CO[C@H]1OC(CO)[C@H](O)C(O)C1O)[C@H](O)[C@H](O)CCCCC", "note": "(stereo partly drawn) [OCH]", "values": [
      {"measurement": "solubility in aqueous solutions", "setting": "[6]", "value": "poorly soluble"}
    ]}
  ]
}
